Measurements: patent publication EP0984975B1, “MULTICYCLIC ERYTHROMYCIN DERIVATIVES” (Abbott Laboratories, priority 1997, dated 1998)

Legend:
Assay in all cases: In vitro assay of antibacterial activity (agar dilution MIC)
Assay type in all cases: cell-based
[1] = system: STAPHYLOCOCCUS AUREUS NCTC10649M; details: BHI agar, 35-37 °C for 20 to 24 hours, unit assumed
Protocol: (§1) Representative compounds of the present invention were assayed in vitro for antibacterial activity as follows: Twelve petri dishes containing successive aqueous dilutions of the test compound mixed with 10 mL of sterilized Brain Heart Infusion (BHI) agar (Difco 0418-01-5) were prepared. Each plate was inoculated with 1:100 (or 1:10 for slow-growing strains, such as Micrococcus and Streptococcus) dilutions of up to 32 different microorganisms, using a Steers replicator block. The inoculated plates were incubated at 35-37 °C for 20 to 24 hours. In addition, a control plate, using BHI agar containing no test compound, was prepared and incubated at the beginning and end of each test.
(§2) An additional plate containing a compound having known susceptibility patterns for the organisms being tested and belonging to the same antibiotic class as the test compound was also prepared and incubated as a further control, as well as to provide test-to-test comparability. Erythromycin A was used for this purpose.
(§3) After incubation, each plate was visually inspected. The minimum inhibitory concentration (MIC) was defined as the lowest concentration of drug yielding no growth, a slight haze, or sparsely isolated colonies on the inoculum spot as compared to the growth control.

CANDIDA ALBICANS CCH 442 = details: BHI agar, 35-37 °C for 20 to 24 hours, unit assumed
Protocol: as §1, §2, §3

[2] = system: STAPHYLOCOCCUS AUREUS A5177; details: BHI agar, 35-37 °C for 20 to 24 hours, unit assumed
Protocol: as §1, §2, §3

[3] = system: STAPHYLOCOCCUS AUREUS CMX 642A; details: BHI agar, 35-37 °C for 20 to 24 hours, unit assumed
Protocol: as §1, §2, §3

[4] = system: STREPTOCOCCUS PYOGENES 930; details: STREPTOCOCCUS PYOGENES 930; BHI agar, 35-37 °C for 20 to 24 hours; unit assumed
Protocol: as §1, §2, §3

EN[…] ATCC 8043 = details: ENTEROCOCCUS FAECIUM ATCC 8043; BHI agar, 35-37 °C for 20 to 24 hours; unit assumed
Protocol: as §1, §2, §3

N. ASTEROIDES ATCC 9970 = details: BHI agar, 35-37 °C for 20 to 24 hours, unit assumed
Protocol: as §1, §2, §3

[5] = system: STAPHYLOCOCCUS AUREUS ATCC 6538P; details: BHI agar, 35-37 °C for 20 to 24 hours, unit assumed
Protocol: as §1, §2, §3

M[…] ATCC 9341 = details: MICROCOCCUS LUTEUS ATCC 9341; BHI agar, 35-37 °C for 20 to 24 hours; unit assumed
Protocol: as §1, §2, §3

ESCHERICHIA COLI JUHL = details: ESCHERICHIA COLI JUHL; BHI agar, 35-37 °C for 20 to 24 hours; unit assumed
Protocol: as §1, §2, §3

[6] = system: STAPHYLOCOCCUS EPIDERMIDIS 3519; details: STAPHYLOCOCCUS EPIDERMIDIS 3519; BHI agar, 35-37 °C for 20 to 24 hours; unit assumed
Protocol: as §1, §2, §3

ESCHERICHIA COLI SS = details: ESCHERICHIA COLI SS; BHI agar, 35-37 °C for 20 to 24 hours; unit assumed
Protocol: as §1, §2, §3

[7] = system: MYCOBACTERIUM SMEGMATIS ATCC 114; details: MYCOBACTERIUM SMEGMATIS ATCC 114; BHI agar, 35-37 °C for 20 to 24 hours; unit assumed
Protocol: as §1, §2, §3

M[…] ATCC 4698 = details: MICROCOCCUS LUTEUS ATCC 4698; BHI agar, 35-37 °C for 20 to 24 hours; unit assumed
Protocol: as §1, §2, §3

ESCHERICHIA COLI DC-2 = details: BHI agar, 35-37 °C for 20 to 24 hours, unit assumed
Protocol: as §1, §2, §3

[8] = system: STAPHYLOCOCCUS AUREUS 1775; details: BHI agar, 35-37 °C for 20 to 24 hours, unit assumed
Protocol: as §1, §2, §3

[9] = system: STREPTOCOCCUS PYOGENES EES61; details: STREPTOCOCCUS PYOGENES EES61; BHI agar, 35-37 °C for 20 to 24 hours; unit assumed
Protocol: as §1, §2, §3

[10] = system: STAPHYLOCOCCUS AUREUS CMX 553; details: BHI agar, 35-37 °C for 20 to 24 hours, unit assumed
Protocol: as §1, §2, §3

[11] = system: STAPHYLOCOCCUS AUREUS A-5278; details: BHI agar, 35-37 °C for 20 to 24 hours, unit assumed
Protocol: as §1, §2, §3

[12] = system: STREPTOCOCCUS PYOGENES PIU 2548; details: STREPTOCOCCUS PYOGENES PIU 2548; BHI agar, 35-37 °C for 20 to 24 hours; unit assumed
Protocol: as §1, §2, §3

[13] = system: STREPTOCOCCUS BOVIS A-5169; details: STREPTOCOCCUS BOVIS A-5169; BHI agar, 35-37 °C for 20 to 24 hours; unit assumed
Protocol: as §1, §2, §3

STR[…] 508 = details: STREPTOCOCCUS AGALACTIAE CMX 508; BHI agar, 35-37 °C for 20 to 24 hours; unit assumed
Protocol: as §1, §2, §3

Compound | Antibacterial Activity (MIC's) [1] [µg/mL] | Antibacterial Activity (MIC's) (CANDIDA ALBICANS CCH 442) [µg/mL] | Antibacterial Activity (MIC's) [2] [µg/mL] | Antibacterial Activity (MIC's) [3] [µg/mL] | Antibacterial Activity (MIC's) [4] [µg/mL] | Antibacterial Activity (MIC's) (EN[…] ATCC 8043) [µg/mL] | Antibacterial Activity (MIC's) (N. ASTEROIDES ATCC 9970) [µg/mL] | Antibacterial Activity (MIC's) [5] [µg/mL] | Antibacterial Activity (MIC's) (M[…] ATCC 9341) [µg/mL] | Antibacterial Activity (MIC's) (ESCHERICHIA COLI JUHL) [µg/mL] | Antibacterial Activity (MIC's) [6] [µg/mL] | Antibacterial Activity (MIC's) (ESCHERICHIA COLI SS) [µg/mL] | Antibacterial Activity (MIC's) [7] [µg/mL] | Antibacterial Activity (MIC's) (M[…] ATCC 4698) [µg/mL] | Antibacterial Activity (MIC's) (ESCHERICHIA COLI DC-2) [µg/mL] | Antibacterial Activity (MIC's) [8] [µg/mL] | Antibacterial Activity (MIC's) [9] [µg/mL] | Antibacterial Activity (MIC's) [10] [µg/mL] | Antibacterial Activity (MIC's) [11] [µg/mL] | Antibacterial Activity (MIC's) [12] [µg/mL] | other results
CC[C@H]1OC(=O)[C@H](C)C(=O)[C@H](C)[C@@H](O[C@@H]2O[C@H](C)C[C@H](N(C)C)[C@H]2O)[C@](C)(OC)C[C@@H](C)C2=Nc3cccnc3N3C(=O)O[C@@]1(C)[C@H]3[C@H]2C [Ex 7, Compound of Formula (II): R^1 is methoxy; R^2 is H, R^3 is absent, the double bond is present, B, D and E are H, and Y and Z taken together with the atom to which they are attached form an oxo group] | 0.39 | > 100 | 0.39 | 0.39 | > 100 | 0.1 | 0.1 | 0.39 | 0.05 | > 100 | 0.39 | 0.78 | 3.1 | 0.39 | > 100 | > 100 | 0.05 | 0.39 | > 100 | 0.39 | Antibacterial Activity (MIC's) [13]: 0.05 µg/mL; Antibacterial Activity (MIC's) (STR[…] 508): 0.05 µg/mL
CC[C@H]1OC(=O)[C@H](C)C(=O)[C@H](C)[C@@H](O[C@@H]2O[C@H](C)C[C@H](N(C)C)[C@H]2O)[C@](C)(OC)C[C@@H](C)C2=Nc3cc(OC)ccc3N3C(=O)O[C@@]1(C)[C@H]3[C@H]2C [Ex 5, Compound of Formula (I): R^1 is methoxy; R^2 is H, R^3 is absent, the double bond is present, A, B, and E are H, D is methoxy, and Y and Z taken together with the atom to which they are attached form an oxo group] | 0.78 | > 100 | 0.78 | 0.78 | > 100 | 0.1 | 0.2 | 0.78 | 0.1 | > 100 | 0.78 | 50 | 1.56 | 0.78 | > 100 | > 100 | 0.02 | 0.78 | > 100 | 0.39 | Antibacterial Activity (MIC's) [13]: 0.02 µg/mL; Antibacterial Activity (MIC's) (STR[…] 508): 0.02 µg/mL
C=CCO[C@]1(C)C[C@@H](C)C2=Nc3ccccc3N3C(=O)O[C@](C)([C@@H](CC)OC(=O)[C@H](C)C(=O)[C@H](C)[C@H]1O[C@@H]1O[C@H](C)C[C@H](N(C)C)[C@H]1O)[C@H]3[C@H]2C [Ex 8, Compound of Formula (I): R^1 is allyloxy; R^2 is H, R^3 is absent, the double bond is present, A, B, D and E are H, and Y and Z taken together with the atom to which they are attached form an oxo group] | 0.78 | > 100 | 0.78 | 0.78 | > 100 | 0.78 | 3.1 | 0.78 | 0.78 | > 100 | 1.56 | 12.5 | 6.2 | 1.56 | > 100 | > 100 | 0.39 | 0.78 | > 100 | 0.78 | Antibacterial Activity (MIC's) [13]: 0.1 µg/mL; Antibacterial Activity (MIC's) (STR[…] 508): 0.39 µg/mL
CC[C@H]1OC(=O)[C@H](C)C(=O)[C@H](C)[C@@H](O[C@@H]2O[C@H](C)C[C@H](N(C)C)[C@H]2O)[C@](C)(OC)C[C@@H](C)C2Nc3ccccc3N3C(=O)O[C@@]1(C)[C@H]3[C@H]2C (single isomer, unassigned) [Ex 3, Compound of Formula (I): R^1 is methoxy; R^2 is H, R^3 is H, the double bond is absent, A, B, D and E are H, and Y and Z taken together with the atom to which they are attached form an oxo group] | 50 | > 100 | 25 | 50 | > 100 | 12.5 | 6.2 | 25 | 3.1 | > 100 | 50 | 100 | 50 | 25 | > 100 | > 100 | 3.1 | 50 | > 100 | 25 | Antibacterial Activity (MIC's) [13]: 1.56 µg/mL; Antibacterial Activity (MIC's) (STR[…] 508): 3.1 µg/mL
